In US4096259A, “Non-amphetaminic psychostimulating compositions of 1,4-disubstituted piperazines” (priority 1975, dated 1978):

Legend:
[1] = Acute toxicity (LD50) in mice, per os; settings: mouse, in vivo, po
Description: Acute toxicity was studied by determining the LD50 in mice, the derivatives being administered per os.

[2] = test system: exploration response in mice; experiment: Psychostimulating activity: increase of exploration response in mice (actimetry); type: in vivo; settings: Mus musculus, po, per os, dose which increases exploration response by 50%
Description: The psychostimulating activity was studied by determining the dose which increases the exploration response in mice (actimetry) by 50% (ED50),according to the method described by BOISSIER J.R. and SIMON P. (Arc. Int. Pharmacolyn, 1965, 212-221158).

rat isolated duodenum = experiment: In vitro papaverine spasmolytic activity: duodenum contractions in rats induced by barium chloride; settings: in vitro, rat duodenum, barium chloride; relative to papaverine hydrochloride = 1
Description: The papaverine spasmolytic activity was measured "in vitro" by the concentration ratio: active principle/papaverine hydrochloride concentration, which reduces duodenum contractions in rats, induced by barium chloride, by 50% according to the method of POMARET J. C., SERGANT - ODY M., POURRIAS B. and HUGUET G. (Therapie, 1969, 24, 109-143).
Table V below gives, by way of example, the complementary pharmacological activities such as antiserotonin, adrenolytic and atropinic activities for derivatives N° 21, 23 and 33, the spasmolytic activity of which is the greatest for the rat isolated duodenum.

SMILES | LD50 [1] | ED50 [2] | Spasmolytic activity (papaverine hydrochloride = 1) (rat isolated duodenum)
O=C(O)CN1CCN(CCOC(c2ccccc2)c2ccccc2)CC1 [Derivative 1] | > 1600 mg/kg | 400 mg/kg | –
O=C(O)CN1CCN(CCOC(c2ccccc2)c2ccc(F)cc2)CC1 (stereo not drawn) [Derivative 4] | 1600 mg/kg | 60 mg/kg | –
O=C(O)CCN1CCN(CCOC(c2ccccc2)c2cccc(C(F)(F)F)c2)CC1 (stereo not drawn) [Derivative 6] | 1200 mg/kg | 200 mg/kg | –
COc1ccccc1C(OCCN1CCN(CCC(=O)O)CC1)c1ccccc1 (stereo not drawn) [Derivative 7] | 1400 mg/kg | > 400 mg/kg | –
O=C(O)CCN1CCN(CCOC(c2ccccc2)c2ccc(Cl)cc2)CC1 (stereo not drawn) [Derivative 8] | 1000 mg/kg | 30 mg/kg | –
Cc1ccc(C(OCCN2CCN(CCC(=O)O)CC2)c2ccccc2)cc1 (stereo not drawn) [Derivative 9] | 1400 mg/kg | 100 mg/kg | –
COc1cc(C(OCCN2CCN(CCC(=O)O)CC2)c2ccccc2)cc(OC)c1OC (stereo not drawn) [Derivative 10] | > 1600 mg/kg | > 400 mg/kg | –
O=C(O)CCN1CCN(CCOC(c2ccc(F)cc2)c2ccc(F)cc2)CC1 [Derivative 11] | 700 mg/kg | 30 mg/kg | 0,1
O=C(O)CCCN1CCN(CCOC(c2ccccc2)c2ccc(F)cc2)CC1 (stereo not drawn) [Derivative 12] | 1200 mg/kg | 35 mg/kg | 0,1
O=C(O)CCCCN1CCN(CCOC(c2ccccc2)c2ccc(F)cc2)CC1 (stereo not drawn) [Derivative 13] | 1400 mg/kg | 35 mg/kg | –
COC(=O)CCCCN1CCN(CCOC(c2ccc(F)cc2)c2ccc(F)cc2)CC1 [Derivative 14] | 500 mg/kg | 45 mg/kg | 3,5
CCOC(=O)CN1CCN(CCOC(c2ccc(F)cc2)c2ccc(F)cc2)CC1 [Derivative 15] | 1200 mg/kg | 40 mg/kg | 6,5
CCOC(=O)CCN1CCN(CCOC(c2ccccc2)c2ccccc2Cl)CC1 (stereo not drawn) [Derivative 17] | 1600 mg/kg | > 200 mg/kg | 1,5
CCOC(=O)CCN1CCN(CCOC(c2ccccc2)c2ccc(Cl)cc2)CC1 (stereo not drawn) [Derivative 18] | 1400 mg/kg | 30 mg/kg | 1
CCOC(=O)CCN1CCN(CCOC(c2ccccc2)c2ccc(C)cc2)CC1 (stereo not drawn) [Derivative 19] | > 1600 mg/kg | > 400 mg/kg | 1,5
CCOC(=O)CCN1CCN(CCOC(c2ccccc2)c2ccc([N+](=O)[O-])cc2)CC1 (stereo not drawn) [Derivative 20] | > 1600 mg/kg | > 400 mg/kg | 5,5
CCOC(=O)CCN1CCN(CCOC(c2ccc(C)cc2)c2ccc(F)cc2)CC1 (stereo not drawn) [Derivative 22] | > 1600 mg/kg | 35 mg/kg | 5,5
CCOC(=O)CCCN1CCN(CCOC(c2ccccc2)c2ccc(F)cc2)CC1 (stereo not drawn) [Derivative 24] | 700 mg/kg | 50 mg/kg | 2,5
CCCCOC(=O)CCN1CCN(CCOC(c2ccc(F)cc2)c2ccc(F)cc2)CC1 [Derivative 25] | 500 mg/kg | 40 mg/kg | 0,5
CCCCCCOC(=O)CCN1CCN(CCOC(c2ccc(F)cc2)c2ccc(F)cc2)CC1 [Derivative 26] | 800 mg/kg | 200 mg/kg | 1
CCOC(=O)CCN1CCN(CCCOC(c2ccccc2)c2ccccc2)CC1 [Derivative 27] | 800 mg/kg | 50 mg/kg | 3,5
CCOC(=O)CCN1CCN(CCCOC(c2ccccc2)c2ccc(F)cc2)CC1 (stereo not drawn) [Derivative 28] | 800 mg/kg | < 100 mg/kg | 6,5
N#CCCN1CCN(CCOC(c2ccccc2)c2ccccc2)CC1 [Derivative 29] | 300 mg/kg | 40 mg/kg | 1
CCCC(OCCN1CCN(CCC(=O)O)CC1)c1ccccc1 (stereo not drawn) [Derivative 35] | > 1600 mg/kg | 60 mg/kg | –
